Measured values published in PMC7998250, “Temperate Zone Plant Natural Products—A Novel Resource for Activity against Tropical Parasitic Diseases” (Pharmaceuticals, 2021).
Like-named read-outs stand apart in the source and are kept apart here.

Experiments:
[1] = system: P. falciparum Dd2Luc intraerythrocytic trophozoites; experiment: Initial screen, intraerythrocytic P. falciparum, Malaria SYBR-Green I fluorescence assay; assay type: cell-based, Plasmodium falciparum; conditions: for activity at 2 µM / inhibition of growth at 2 µM: Plasmodium falciparum, 48 h; for initial hit against P. falciparum: 2 μM, growth reduced by ≥50%; for inhibition of growth at 2 µM: read-out: initial hit P.f
In short: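 L. mexicana axenic amastigotes at 1 × 10^6 cells/mL exposed 72 h to compounds at 2 μM, growth read by Alamar Blue; P. falciparum trophozoites at 0.5% parasitaemia, 2% haematocrit, 48 h at 2 μM, SYBR-Green I read-out. Growth normalised to 1% DMSO; hits ≥50% growth reduction.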

[2] = Cytotoxicity CC50, differentiated THP-1, Alamar Blue; assay type: cell-based, human; conditions: human
Source text: The four lanosterone-like sterols derived from the Noble Fir Abies procera (700022, 700107, 700136) and the Grand Fir Abies grandis (700240) were the only initial compounds taken forward for L. mexicana due to their nanomolar activity and apparent low cytotoxicity (Figure 3a). […] Understanding the impact of the ring-opened lactone head group in this compound compared to the other three warrants further analysis in exploring their structure-activity relationships. These four sterols were also tested for growth inhibitory activity against L. donovani axenic amastigotes. […] As Leishmania spp. amastigotes typically reside with macrophages, further cytotoxicity assays with these sterols were performed against an activated monocyte cell line (THP-1) (Figure 4b). […]

[3] = system: T. brucei bloodstream form; experiment: Initial screen, T. brucei bloodstream form, Alamar Blue; assay type: cell-based, Trypanosoma brucei brucei; conditions: for activity at 2 µM / inhibition of growth at 2 µM: Trypanosoma brucei; for initial hit against T. brucei: growth reduced by ≥50%; for inhibition of growth at 2 µM: read-out: initial hit T.b
In short: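 Bloodstream-form T. evansi Antat 3/3 and T. brucei Lister 427 were grown in HMI-11 with 10% FBS at 37 °C. Parasites were plated at 1×10^5 cells/mL with compound at 1 μM (T. evansi) or 2 μM (T. brucei) for 48 h, and growth was read by Alamar Blue relative to 1% DMSO controls (n = 6).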

[4] = system: L. mexicana axenic amastigotes; experiment: Concentration-response EC50, L. mexicana axenic amastigotes (WT); assay type: cell-based, Leishmania mexicana
Source text: (§1) Initial hits from the parasite panel screen were taken forward in log concentration versus normalised response assays to estimate the half maximal effective concentration (EC50) in hit species as well as the half maximal cytotoxic concentrations (CC50) in the human hepatoma cell line HepG2 as a preliminary test for selectivity. Using CC50/EC50 to define the selectivity index (SI), the selectivity for each compound in a defined species compared to a human cell line was estimated and compared to the EC50 (Figure 3).
(§2) EC50 values were determined by serial two-fold dilution of each compound in 96 well plates. Culture conditions and viability assays were as stated for the initial screen, with some exceptions. L. mexicana and L. donovani axenic amastigotes were seeded at 2 × 10^6 cell/s mL, T. brucei and T. evansi were seeded at 2 × 10^5 cells/mL. For cytotoxicity studies, HepG2 cells were seeded at 1 × 10^5 cells/mL, incubated for 48 h and viability was assessed using the Alamar Blue assay [66, 67]. […] Normalised growth and viability data (compared to untreated controls) were plotted against Log10 concentration to estimate EC50 in GraphPad (Prism v6).

T. evansi = experiment: Concentration-response EC50, T. evansi; assay type: cell-based; conditions: Trypanosoma evansi, 48 h, read-out: T. evansi EC50
Source text: as §1, §2

[5] = read-out: %growth P. falciparum, mean % growth compared to a normalised control with same concentration of DMSO solvent, initial screen
[6] = mean % growth compared to a normalised control with same concentration of DMSO solvent, initial screen, read-out: % growth T. b. brucei
[7] = Leishmania mexicana, 72 h, read-out: L. mexicana EC50, axenic amastigotes, 72 h
[8] = initial screen, compared to a normalised control with same concentration of DMSO solvent
[9] = read-out: mean % growth, P. falciparum, initial screen, compared to a normalised control with same concentration of DMSO solvent
[10] = differentiated THP-1, 48 h, read-out: THP1 CC50
[11] = read-out: mean % growth, T. b. brucei, initial screen, compared to a normalised control with same concentration of DMSO solvent

## CC1=CC(O)(CC(C)C2(C)CC=C3C4=CCC5C(C)(C)C(O)CCC5(C)C4CCC32C)OC1=O (stereo not drawn) [Compound 700022]
[1]; [5]
  activity at 2 µM: 105%
[2]; THP1 CC50
  CC50 at 48 h: 17000 nM
[3]; [6]
  activity at 2 µM: 53.5%
[4]; [7]
  EC50: 250 nM
[4]; Leishmania mexicana, read-out: WT EC50, L. mexicana WT axenic amastigotes
  EC50: 240 nM

## CC1OC(OC2C(OC(=O)C3CC[C@@H]4[C@H](C3)OC3(CC(OC(=O)/C=C/c5ccccc5)[C@@H](C)CO3)C43CO3)OC(CO)C(O)C2O)C(O)C(O)C1O (stereo partly drawn) [Compound 700042]
[1]
  initial hit against P. falciparum: initial hits
  inhibition of growth at 2 µM: > 50%
[1]; [5]
  activity at 2 µM: 28.9%
[3]; 2 μM
  initial hit against T. brucei: initial hits
[3]; read-out: % growth T. b. brucei, mean % growth compared to a normalised control with same concentration of DMSO solvent, initial screen
  activity at 2 µM: 1.6%
[3]
  inhibition of growth at 2 µM: > 50%
T. evansi
  EC50: 618 nM

## CC1=CC(O)(CC(C)C2(C)CCC3C4=CCC5C(C)(CCC(O)C5(C)C)C4=CCC32C)OC1=O (stereo not drawn) [Compound 700107]
[1]; [5]
  activity at 2 µM: 96.8%
[2]; THP1 CC50
  CC50 at 48 h: 27000 nM
[3]; [6]
  activity at 2 µM: 85.2%
[4]; [7]
  EC50: 260 nM

## CC1=CC(O)(CC(C)C2(C)CC=C3C4=CCC5C(C)(C)C(=O)CCC5(C)C4CCC32C)OC1=O (stereo not drawn) [Compound 700136]
[1]; [5]
  activity at 2 µM: 99.9%
[2]; THP1 CC50
  CC50 at 48 h: 17000 nM
[3]; [6]
  activity at 2 µM: 104%
[4]; [7]
  EC50: 210 nM

## C/C(=C/C(=O)CC(C)C1CCC2(C)C3=CCC4C(C)(C)C(=O)CCC4(C)C3CCC12C)C(=O)O (stereo not drawn) [Compound 700240]
[1]; [5]
  activity at 2 µM: 77.9%
[2]; THP-1 cells differentiated into macrophages with PMA, differentiated THP-1, 48 h, read-out: THP1 CC50
  CC50 at 48 h: 13500 nM
[3]; [6]
  activity at 2 µM: 72.9%
[4]; [7]
  EC50: 510 nM

## C=C1C(=O)OC2CC(C)C3C=CC(=O)C3(C)C(OC(C)=O)C12 (stereo not drawn) [Compound 701155]
[1]; [8]
  mean % growth, P. falciparum: 55.1%
[3]; 2 μM
  initial hit against T. brucei: initial hits
[3]; [8]
  mean % growth, T. b. brucei: -0.8%
[4]; read-out: L. mexicana EC50, axenic amastigotes, 72 h
  EC50: 230 nM
T. evansi
  EC50: 135 nM

## C=C1C(=O)OC2CC(C)C3C=CC(=O)C3(C)C(OC(=O)C(C)C)C12 (stereo not drawn) [Compound 701157]
[1]; [9]
  activity at 2 µM: 51.9%
[2]; [10]
  CC50 at 48 h: 730 nM
[3]; 2 μM
  initial hit against T. brucei: initial hits
[3]
  inhibition of growth at 2 µM: > 50%
[3]; [11]
  activity at 2 µM: -1.8%
[4]; [7]
  EC50: 200 nM
T. evansi
  EC50: 191 nM

## C=C1C(=O)OC2CC(C)C3C=CC(=O)C3(C)C(OC(=O)C(C)CC)C12 (stereo not drawn) [Compound 701158]
[1]
  initial hit against P. falciparum: initial hits
  inhibition of growth at 2 µM: > 50%
[1]; [9]
  activity at 2 µM: 49%
[2]; [10]
  CC50 at 48 h: 290 nM
[3]; 2 μM
  initial hit against T. brucei: initial hits
[3]
  inhibition of growth at 2 µM: > 50%
[3]; [11]
  activity at 2 µM: -1.3%
[4]; [7]
  EC50: 240 nM
T. evansi
  EC50: 244 nM

## C=C1C(=O)OC2CC(C)C3C(OC)CC(=O)C3(C)C(OC(=O)C(C)CC)C12 (stereo not drawn) [Compound 701159]
[1]; [9]
  activity at 2 µM: 83.7%
[2]; [10]
  CC50 at 48 h: 1420 nM
[3]; 2 μM
  initial hit against T. brucei: initial hits
[3]; initial screen, compared to a normalised control with same concentration of DMSO solvent, read-out: mean % growth, T. b. brucei
  activity at 2 µM: 13.7%
[3]; 2 μM, x = initial hit
  inhibition of growth at 2 µM: > 50%
[4]; [7]
  EC50: 870 nM
